Source: ChEMBL document CHEMBL5729193, “Aromatic vinyl or aromatic ethyl derivative, preparation method therefor, intermediate, pharmaceutical composition, and application” (2022)

The molecules below were run against Programmed cell death protein 1/Programmed cell death 1 ligand 1 (Homo sapiens, UniProt Q15116+Q9NZQ7) (assay: Homogenouse Time-Resolved Fluorescence (HTRF) Binding Assay: Experimental Procedure1. The compound was formulated to 10 concentrations with a three-fold concentration gradient with 100% DMSO.2. The solution of the compound in DMSO was added to Dilute Buffer, and mixed evenly and then transferred to a 96-well plate.3. PD-L1 was diluted with Dilute Buffer and added to the 96-well plate above.4. PD-1 was diluted with Dilute Buffer, then added to the 96-well plate above and incubated at room temperature for 30 minutes.5. One portion of anti-tag1-Eu and one portion of anti-tag2-XL665 were added to Detection Buffer, mixed evenly and transferred to the 96-well plate above.6. The mixed solution in the 96-well plate were incubated at room temperature for 1 to 24 hours.7. HTRF values were read by Envision.).
Programmed cell death protein 1/Programmed cell death 1 ligand 1, sequence (Q15116 whole entry): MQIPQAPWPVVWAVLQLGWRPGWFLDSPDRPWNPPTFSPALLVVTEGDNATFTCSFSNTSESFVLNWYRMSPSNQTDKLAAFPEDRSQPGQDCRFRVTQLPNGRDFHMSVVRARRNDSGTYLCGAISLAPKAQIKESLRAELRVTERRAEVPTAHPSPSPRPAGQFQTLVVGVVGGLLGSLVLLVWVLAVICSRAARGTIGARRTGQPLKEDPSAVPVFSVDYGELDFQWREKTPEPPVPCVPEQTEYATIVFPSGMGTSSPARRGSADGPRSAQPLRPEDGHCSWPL
Programmed cell death protein 1/Programmed cell death 1 ligand 1, sequence (Q9NZQ7 whole entry): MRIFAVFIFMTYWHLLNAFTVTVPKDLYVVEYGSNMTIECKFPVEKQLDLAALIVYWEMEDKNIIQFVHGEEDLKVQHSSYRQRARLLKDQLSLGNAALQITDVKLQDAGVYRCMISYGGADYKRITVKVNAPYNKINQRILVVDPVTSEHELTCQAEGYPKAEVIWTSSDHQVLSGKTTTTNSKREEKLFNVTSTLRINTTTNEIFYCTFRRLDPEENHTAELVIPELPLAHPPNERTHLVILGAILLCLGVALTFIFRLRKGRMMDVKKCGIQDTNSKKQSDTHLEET
Assay type: protein-complex assay

| SMILES | IC50 [nM] |
| --- | --- |
| Cc1ccc(CNC(C)(CO)C(=O)O)cc1/C=C/c1cccc(-c2ccc(F)cc2)c1C (configuration not stated) | 1400 |
| Cc1c(/C=C/c2cc(CN[C@@](C)(CO)C(=O)O)ccc2C(F)(F)F)cccc1-c1ccc2cn(C)nc2c1 | 880 |
| Cc1c(/C=C/c2cc(CNC(C)(CO)C(=O)O)ccc2C(F)(F)F)cccc1-c1cccc(F)c1 (configuration not stated) | 46 |
| Cc1c(/C=C/c2cc(CN[C@@](C)(CO)C(=O)O)ccc2C(F)(F)F)cccc1-c1ccccn1 | 2200 |
| Cc1c(CCc2cc(CNC(C)(CO)C(=O)O)ccc2C(F)(F)F)cccc1-c1ccccc1 (configuration not stated) | 85 |
| Cc1c(/C=C/c2cc(CN[C@@](C)(CO)C(=O)O)ccc2C(F)(F)F)cccc1-c1cccnc1 | 580 |
| Cc1c(/C=C/c2cc(CNC(CO)C(=O)O)ccc2C(F)(F)F)cccc1-c1ccc2c(c1)OCCO2 (configuration not stated) | 14 |
| Cc1c(/C=C/c2cc(CNC(CO)C(=O)O)ccc2C(F)(F)F)cccc1-c1ccccc1F (configuration not stated) | 13 |
| Cc1c(/C=C/c2cc(CN[C@@](C)(CO)C(=O)O)ccc2C(F)(F)F)cccc1-c1ccc2ncoc2c1 | 1100 |
| Cc1c(/C=C/c2cc(C(C)NCC(=O)O)ccc2C(F)(F)F)cccc1-c1ccccc1 (configuration not stated) | 24 |
| Cc1c(/C=C/c2cc(CN[C@@](C)(CO)C(=O)O)ccc2C(F)(F)F)cccc1-c1cnccn1 | 540 |
| Cc1c(CCc2cc(CNC(C)C(=O)O)ccc2C(F)(F)F)cccc1-c1ccccc1 (configuration not stated) | 44 |
| Cc1c(/C=C/c2cc(CNC(C)(CO)C(=O)O)ccc2C(F)(F)F)cccc1-c1ccc(F)cc1 (configuration not stated) | 320 |
| Cc1c(/C=C/c2cc(CNC(C)(CO)C(=O)O)ccc2C(F)(F)F)cccc1-c1ccccc1F (configuration not stated) | 20 |
| COc1ccc(-c2cccc(/C=C/c3cc(CNC(C)(CO)C(=O)O)ccc3C)c2C)cc1 (configuration not stated) | 3100 |
| Cc1c(CCc2cc(CNC(CO)C(=O)O)ccc2C(F)(F)F)cccc1-c1ccccc1 (configuration not stated) | 46 |
| Cc1ccc(CNC(C)(CO)C(=O)O)cc1/C=C/c1cccc(-c2cccc(F)c2)c1C (configuration not stated) | 57 |
